Numbering of substitutions follows the chain as printed. Read-outs that look alike come from different tables or passages of the source. Blank lines part the entries; values can stand above or below the compound they belong to.
Tests used:
Assay type in all cases: cell-based
[1] = biological target: T1, bovine rod (Brod) CNG channel, α homomultimer (Bos taurus, UniProt Q00194); conditions: for Hill coefficient n of cGMP activation: six patches
T1 sequence (Q00194 1-690): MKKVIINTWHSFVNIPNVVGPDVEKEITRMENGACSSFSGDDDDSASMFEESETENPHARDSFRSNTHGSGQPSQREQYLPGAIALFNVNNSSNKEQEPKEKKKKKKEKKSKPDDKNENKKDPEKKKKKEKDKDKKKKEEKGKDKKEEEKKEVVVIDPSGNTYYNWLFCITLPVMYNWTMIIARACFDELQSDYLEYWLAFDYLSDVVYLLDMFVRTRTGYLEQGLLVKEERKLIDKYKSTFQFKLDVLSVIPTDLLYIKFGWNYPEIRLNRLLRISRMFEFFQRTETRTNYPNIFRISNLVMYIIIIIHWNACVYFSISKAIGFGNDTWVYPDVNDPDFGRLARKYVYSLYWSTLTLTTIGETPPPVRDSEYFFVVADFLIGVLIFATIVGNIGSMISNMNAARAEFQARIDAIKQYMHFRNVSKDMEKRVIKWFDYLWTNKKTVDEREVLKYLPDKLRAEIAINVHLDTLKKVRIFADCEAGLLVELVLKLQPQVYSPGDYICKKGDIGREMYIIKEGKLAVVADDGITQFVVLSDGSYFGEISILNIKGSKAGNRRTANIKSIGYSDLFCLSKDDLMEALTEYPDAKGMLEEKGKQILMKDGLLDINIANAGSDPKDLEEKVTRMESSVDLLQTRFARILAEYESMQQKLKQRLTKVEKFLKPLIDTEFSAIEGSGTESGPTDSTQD

[2] = biological target: T2, mouse olfactory (Molf) CNG channel, α homomultimer (Mus musculus, UniProt Q62398, M2V)
T2 sequence (Q62398 1-664 M2V): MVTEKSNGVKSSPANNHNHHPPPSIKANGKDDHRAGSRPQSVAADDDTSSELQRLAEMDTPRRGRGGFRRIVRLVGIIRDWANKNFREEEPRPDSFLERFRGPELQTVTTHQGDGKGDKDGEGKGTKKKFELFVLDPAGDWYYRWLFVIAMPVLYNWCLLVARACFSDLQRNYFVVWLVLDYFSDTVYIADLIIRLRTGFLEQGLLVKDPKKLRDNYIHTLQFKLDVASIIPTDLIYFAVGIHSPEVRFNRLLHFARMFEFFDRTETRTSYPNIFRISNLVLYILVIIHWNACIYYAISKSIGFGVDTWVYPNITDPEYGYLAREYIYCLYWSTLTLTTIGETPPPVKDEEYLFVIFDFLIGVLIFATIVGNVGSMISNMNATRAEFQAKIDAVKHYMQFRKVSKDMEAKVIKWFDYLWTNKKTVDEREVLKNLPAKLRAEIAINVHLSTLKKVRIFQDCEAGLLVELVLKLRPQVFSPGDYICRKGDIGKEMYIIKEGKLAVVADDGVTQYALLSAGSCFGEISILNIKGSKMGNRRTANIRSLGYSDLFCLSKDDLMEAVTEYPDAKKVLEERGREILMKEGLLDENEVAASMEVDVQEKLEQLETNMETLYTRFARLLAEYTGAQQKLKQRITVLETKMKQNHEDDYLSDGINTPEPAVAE

[3] = biological target: T3, Molf G204E CNG channel (Mus musculus, UniProt Q62398, G204E/M2V)
T3 sequence (Q62398 1-664 M2V/G204E): T2 sequence (Q62398 1-664 M2V) with G204E

[4] = biological target: T4, Rolf G204W CNG channel (Rattus norvegicus, UniProt Q00195, G204W)
T4 sequence (Q00195 1-664 G204W): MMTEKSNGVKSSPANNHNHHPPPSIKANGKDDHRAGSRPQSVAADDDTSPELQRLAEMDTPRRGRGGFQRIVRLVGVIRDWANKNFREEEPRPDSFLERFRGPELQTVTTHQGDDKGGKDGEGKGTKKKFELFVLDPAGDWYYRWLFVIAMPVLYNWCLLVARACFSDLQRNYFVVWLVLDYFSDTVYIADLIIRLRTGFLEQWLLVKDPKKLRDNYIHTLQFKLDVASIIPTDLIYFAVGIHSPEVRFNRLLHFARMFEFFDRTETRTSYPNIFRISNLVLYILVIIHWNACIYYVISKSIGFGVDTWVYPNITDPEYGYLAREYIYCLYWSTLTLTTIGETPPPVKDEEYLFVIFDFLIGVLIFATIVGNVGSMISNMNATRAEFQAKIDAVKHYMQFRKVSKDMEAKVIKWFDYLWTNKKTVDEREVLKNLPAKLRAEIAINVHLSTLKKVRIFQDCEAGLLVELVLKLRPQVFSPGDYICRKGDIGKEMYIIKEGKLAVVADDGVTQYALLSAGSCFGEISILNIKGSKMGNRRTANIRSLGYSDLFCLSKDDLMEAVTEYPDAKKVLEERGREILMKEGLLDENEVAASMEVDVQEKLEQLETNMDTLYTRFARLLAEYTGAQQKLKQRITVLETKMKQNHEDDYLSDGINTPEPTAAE

[5] = read-out: Percent inhibition by tetracaine

- inhibition at 40 µM [1, 5]: 94.1%
- inhibition at 40 µM [2, 5]: 18.8%
- IC50 [3]: 10.8 µM
- inhibition at 40 µM [3, 5]: 78.3%
- IC50 [4]: 2.2 µM
- inhibition at 40 µM [4, 5]: 100%
Compound: CCCCNc1ccc(C(=O)OCCN(C)C)cc1 [Tetracaine, tetracaine]

- I/Imax of cGMP-activated current ([1]; Brod, 10 μM cGMP, +100 mV): 0.20
- Hill coefficient n of cGMP activation ([1]; Brod, +100 mV): 2.0
- Hill coefficient n of cGMP activation ([1]; Brod, −100 mV): 2.0
- I/Imax of cGMP-activated current ([2]; Molf, 1 μM cGMP, +100 mV): 0.15
- I/Imax of cGMP-activated current ([3]; Molf G204E, 1 μM cGMP, +100 mV): 0.15
- Hill coefficient n of cGMP activation ([4]; Rolf G204W, averaged six patches, +100 mV): 1.7
- Hill coefficient n of cGMP activation ([4]; Rolf G204W, averaged six patches, −100 mV): 1.7
- Hill coefficient n of cGMP activation ([4]; Rolf G204W, single patch, +100 mV): 2.0
- Hill coefficient n of cGMP activation ([4]; Rolf G204W, single patch, −100 mV): 2.0
- EC50 ([4]; read-out: cGMP K1/2 (half-maximal activation), Rolf G204W, +100 mV, averaged data from six patches): 14 µM
- EC50 ([4]; read-out: cGMP K1/2, Rolf G204W, single patch, +100 mV): 14 µM
- EC50 ([4]; read-out: cGMP K1/2, Rolf G204W, single patch, −100 mV): 18 µM
Compound: Nc1nc2c(ncn2[C@@H]2O[C@@H]3COP(=O)(O)O[C@H]3[C@H]2O)c(=O)[nH]1 [cGMP]

- decrease of maximal current by DAG ([1]; Brod, 1.5 μM DAG, saturating 2 mM cGMP): > 80%
- DAG concentration that fully suppresses cGMP-activated currents ([1]; Brod, saturating cGMP): ~3 µM
- inhibition of cGMP-activated current by DAG (in words) ([2]; Molf, 12 μM DAG, saturating cGMP): only partial inhibition
- DAG maximal percent inhibition (INmax) ([2]; Molf, saturating 100 μM cGMP): 17%
- Hill coefficient n of DAG inhibition ([2]; Molf, saturating 100 μM cGMP): 0.8
- decrease of maximal current by DAG ([3]; Molf G204E, 1.5 μM DAG, saturating 100 μM cGMP): > 80%
- DAG maximal percent inhibition (INmax) ([3]; Molf G204E, saturating 100 μM cGMP): 100%
- DAG concentration that fully suppresses cGMP-activated currents ([3]; Molf G204E, saturating cGMP): ~3 µM
- DAG maximal percent inhibition (INmax) ([4]; Rolf G204W, 2 mM cGMP): 100%
- Hill coefficient n of DAG inhibition ([4]; Rolf G204W, 2 mM cGMP): 3.2
Compound: diacylglycerol [DAG]

— paper PMC2231820 (The Journal of General Physiology, 2000)
